Data set [1] in a line: Conversion of prodrug to SP-8356.
Data set [2] concerns phosphorylation of Smad2/3. As to the kind of experiment: Western blot of Smad2/3 phosphorylation in VAT of HFD-induced mice. The format is in vivo. The settings on record: 50 mg/kg as SP-8356 via water, 20 weeks, vs HFD. The text has this: (§1) Male C57BL/6 mice (6 weeks old, 20 g body weight) were purchased from Orient-Bio (Seongnam, Korea). All mice were maintained in a 12-hr light/dark cycle and fed ad libitum. To minimize environmental differences, mice were allowed 2 weeks for acclimation before the start of experiments. For diet-induced NAFLD experiments, mice were fed either an HFD (60% of kcal in fat, D12492, Research Diets, NJ, USA) or a normal chow diet (ND) for 20 weeks. All experimental protocols and procedures were approved by the Ethics Committee and the Institutional Animal Care and Use Committee of Korea University College of Medicine (Approval No. KOREA-2019-0026).
(§2) The mice were subdivided into vehicle and SP-1154 (50 mg/kg as SP-8356) groups. SP-1154 was administrated to the mice via tab water and the dose of drug was determined by daily water consumption (6 mL/day) and body weights, which were measured every week.
VAT was lysed in RIPA buffer (Thermo Fisher Scientific, Waltham, MA, USA) with protease inhibitor (GeneDepot, Barker, TX, USA). The protein concentration was quantified using the BCA protein assay kit (Thermo Fisher Scientific, Waltham, MA, USA). […] Protein bands were detected using the ECL assay kit (GE Healthcare, Chicago, IL, USA).
Background: Immunoblotting shows a protein as a band on a membrane.

Another data set relates to VAT inflammation. Nature of the data set: 18F-FDG PET/CT imaging of VAT metabolic activity (SUVmax). It counts as in vivo, mice.
Text: as §1
The mice were subdivided into vehicle and SP-1154 (50 mg/kg as SP-8356) groups. SP-1154 was administrated to the mice via tab water and the dose of drug was determined by daily water consumption (6 mL/day) and body weights, which were measured every week. […]
Images were analyzed by two experienced nuclear medicine physicians (KP and HWK) using commercially available software (Syngo. via, Siemens Healthcare, Erlangen, Germany). […] For the evaluation of VAT metabolic activity, region on interest (ROI) was placed along the intra-abdominal fat on each slice and the maximum standardized uptake value (SUVmax) was measured, as previously described. […]

The test system of data set [3] is HFD-induced liver steatosis. Nature of the data set: CT measurement of liver density (Hounsfield units). It counts as in vivo, mice. The settings on record: measured in HU, vs HFD.
Text: as §1, §2
^18F-FDG PET/CT was performed using a dedicated small animal PET/CT scanner (eXplore Vista DR PET/CT, GE Healthcare, Milwaukee, WI, USA). Mice were not fasted before taking examination and anesthetized with 2% isoflurane in oxygen (1 L/min) during the examination. PET/CT image acquisition was started 40 min after the injection of 18.5 MBq/0.1 mL of ^18F-FDG via the tail vein. Static PET images were acquired for 20 min, followed by CT scan (40 kV, 250 uA). […]

A short description of data set [4]: Body weight and food intake during 20-week HFD study. The format is in vivo. To be noted: HFD-induced mice, 50 mg/kg as SP-8356, 20 weeks; vs HFD.
Text: as §1, §2

The next data set has as its system TGF-β1. As to the kind of experiment: qRT-PCR of TGF-β1 mRNA in VAT of HFD-induced mice. The format is in vivo. To be noted: HFD vs HFD with SP-1154, 20 weeks.
Text: as §1, §2
(§3) Total RNA was extracted from VAT samples using the Trizol reagent (Invitrogen, Carlsbad, CA, USA) and the generation of cDNA was performed using the reverse transcription reaction kit (iScript cDNA synthesis kit, Bio-Rad, Hercules, CA, USA). Gene expression was assessed using SYBR Green mixture (iQTM SYBR Green Supermix, Bio-Rad, Hercules, CA, USA) and an iCycler PCR thermocycler (Bio-Rad, Hercules, CA, USA). […]
(Real-time PCR tracks product formation cycle by cycle.)

A further data set has as its system CD68. Nature of the data set: CD68 immunohistochemistry of VAT. The format is in vivo, mice. The settings on record: IHC on harvested VAT; vs HFD.
Text: as §1, §2
(§4) Mice were sacrificed after 20 weeks of drug administration by using the CO2 chamber. […] Adipocyte surface area of a minimum of 300 cells per group was measured using ImageJ software (version 1.45 s, Bethesda, MD, USA), as previously described. Hepatic steatosis was assessed using three-scale scoring system based on H&E-stained liver: score 1 (mild, 5-33%); score 2 (moderate, 34-66%); score 3 (severe, >66%). […]

Data set [5] can be described thus: Glucose tolerance test (GTT). It counts as in vivo. The settings on record: HFD-induced mice; vs HFD.
Text: as §1, §2
(§5) For GTT, glucose (2 g/kg body weight) was orally administered to mice after overnight fasting, and blood was drawn to measure glucose concentrations at indicated times thereafter. For ITT, insulin (1.5 insulin units/kg body weight) was intraperitoneally injected into mice after fasting for 4 hours, and blood was drawn to measure blood glucose at indicated times. Insulin concentrations were measured at each indicated time in serum collected from the mice subjected to GTT.

A further data set deals with GLUT4. As to the kind of experiment: GLUT4 expression in VAT (immunostaining, qRT-PCR). It counts as in vivo, mice. The settings on record: 20 weeks of HFD, vs HFD.
Text: as §1, §2
(§6) Tissues were incubated with anti-CD68 (ab 125212, Abcam, Cambridge, MA, USA), anti-glucose transporter 1 (GLUT1) (ab652, Abcam, Cambridge, MA, USA), and anti-GLUT4 (ab654, Abcam, MA, USA). Alexa Fluor 594 (Invitrogen, Carlsbad, CA, USA) was used as secondary antibody. All fluorescence images were acquired with Zeiss Axio Scan.Z1 (Carl Zeiss, Jena, Germany). […]

The test system of data set [6] is HFD-induced liver steatosis. Nature of the data set: Liver weight and liver steatosis score of harvested liver. It counts as in vivo, mice. The settings on record: vs HFD.
Text: as §1, §2, §4

For the next data set, the system named is TGF-βR1. Nature of the data set: qRT-PCR of TGF-βR1 mRNA in VAT of HFD-induced mice. The format is in vivo. To be noted: HFD vs HFD with SP-1154, 20 weeks.
Text: as §1, §2, §3

The subject of a further data set is adipocytes in VAT. As to the kind of experiment: Histopathology of VAT: adipocyte surface area. It counts as in vivo, mice. To be noted: 20 weeks of HFD, vs HFD.
Text: as §1, §2, §4

In the next data set the test system is GLUT1. Nature of the data set: GLUT1 expression in VAT (immunostaining, qRT-PCR). The format is in vivo, mice. To be noted: 20 weeks of HFD, vs HFD.
Text: as §1, §2, §6

Data set [7] can be described thus: Insulin tolerance test (ITT). The format is in vivo. To be noted: HFD-induced mice; vs HFD.
Text: as §1, §2, §5

A short description of data set [8]: Solubility in saline / water. The format is physicochemical.
A further data set deals with C-reactive protein (CRP). As to the kind of experiment: ELISA of serum C-reactive protein. The format is in vivo, mice.
Text: as §1, §2
Serum concentration of C-reactive protein (CRP) was determined using a commercially available ELISA kit (ab157712, Abcam, Cambridge, MA, USA) according to the manufacturer's instruction.
For orientation: In an ELISA, binding on a coated surface is turned into a signal by an enzyme label.

Data set [9] deals with macrophage infiltration into VAT. Nature of the data set: Flow cytometry of F4/80+CD11b+ macrophages in VAT. The settings on record: vs HFD. The format is in vivo, mice.
Text: as §1, §2
Cells were suspended in 0.1 mL of fluorescence-activated cell sorting (FACS) buffer (phosphate-buffered saline; PBS with 5% fetal bovine serum; FBS) and incubated with Fc blocker (BD Bioscience, San Jose, CA, USA) at room temperature for 10 min, followed by an additional 30 min with anti-CD45 APC-Cy7, anti-F4/80 PE, and anti-CD11b-PerCP-Cy5.5 (Biolegend, San Diego, CA, USA) antibodies according to the manufacturer's recommendation. […]

A short description of data set [10]: Blood analysis (serum AST, ALT, total cholesterol). It counts as in vivo, mice.
Text: as §1, §2
Blood samples were collected immediately before sacrifice. The levels of AST (aspartate aminotransferase), ALT (alanine aminotransferase), total cholesterol, and triglyceride in serum were measured using a FUJI DRI-Chemiclinical Chemistry Analyzer (FUJI DRI-CHEM 4000i, Fuji Film, Tokyo, Japan).

Data set [11] is described as follows: Efficacy of suspension versus soluble prodrug form. To be noted: suspension in saline.
Setting [12] is: normal mice vs SP-1154-treated mice.

For `COc1cc(/C=C/C2=CC(=O)[C@H]3C[C@@H]2C3(C)C)cc(OC(=O)[C@@H](N)C(C)C)c1OC(=O)[C@@H](N)C(C)C.Cl.Cl` [SP-1154, (2S,2'S)-5-((E)-2-((1R,5S)-6,6-dimethyl-4-oxobicyclo[3.1.1]hept-2-en-2-yl)vinyl)-3-methoxy-1,2-phenylene bis(2-amino-3-methylbutanoate)-dihydrochloride], the “conversion of prodrug to SP-8356” value in [1] was “converted to SP-8356 very quickly”. Further, the “phosphorylation of Smad2/3 in VAT” value in data set [2] is on record as “inhibited”. Moreover, in the data set on VAT inflammation (18F-FDG PET/CT after 20 weeks of HFD, vs HFD), the “VAT SUVmax” value was “significantly reduced”. Also, the “VAT SUVmax, difference to normal mice” value with VAT inflammation (setting [12]) was “no significant difference”. Also, the liver density entry in data set [3] is reported as “significantly enhanced”. In addition, in data set [4], the “HFD-induced body weight gain” value is “significantly attenuated”. The “mRNA expression level of TGF-β1 in VAT” value in the data set with TGF-β1 is on record as “no significant difference”. In the data set on CD68, the “expression of CD68 in VAT” value is recorded as “suppressed”. The “glucose homeostasis (GTT)” value in data set [5] is “significantly improved”. In the data set on GLUT4, the GLUT4 expression result is on record as “increased”. Moreover, in data set [6] (H&E-stained liver, three-scale scoring), the liver steatosis score result is reported as “significantly reduced”. In data set [6] (harvested liver), the liver weight entry is “significantly reduced”. The “mRNA expression level of TGF-βR1 in VAT” value with TGF-βR1 is “no significant difference”. Besides, in the data set on adipocytes in VAT, the adipocyte size result is on record as “significant reduction”. For the same molecule, the GLUT1 expression entry with GLUT1 was “decreased”. Further, the “insulin resistance (ITT)” value in [7] is listed as “significantly improved”. Moreover, in [8] (water), the water solubility entry is “high”. Besides, the “CRP levels, difference to normal mice” value in the data set on C-reactive protein (CRP) (setting [12]) is “no significant difference”. For the same molecule, in the data set with C-reactive protein (CRP) (serum, HFD-induced mice, vs HFD), the “levels of CRP” value is reported as “significantly suppressed”. Also, the “macrophage infiltration into VAT” value in data set [9] is given as “significantly prevented”. The serum total cholesterol entry in data set [10] (HFD vs HFD with SP-1154) is listed as “no significant difference”. Further, in data set [10] (serum, HFD-induced mice), the “level of ALT” value is reported as “improved” and the “level of AST” value is “improved”.

In the case of `COc1cc(C=CC2=CC(=O)[C@H]3C[C@@H]2C3(C)C)cc(O)c1O` [SP-8356, (1S,5R)-4-(3,4-dihydroxy-5-methoxystyryl)-6,6-dimethylbicyclo[3.1.1]hept-3-en-2-one], in data set [11], the “efficacy when used as a suspension” value is “weak but significant”. Further, the solubility in saline result in data set [8] (saline) is “does not dissolve well in saline”.

Source of the values: US20240415787A1, “COMPOSITION FOR TREATING OR PREVENTING OBESITY OR OBESITY-ASSOCIATED LIVER DISEASE, COMPRISING VERBENONE DERIVATIVES” (SHIN POONG PHARMACEUTICAL CO., LTD., priority 2021, published 2024).
